Source: patent US20230118142A1, “AGENTS FOR USE IN THE TREATMENT OF TISSUE DAMAGE” (UCL BUSINESS LTD, priority 2020, published 2023)

Legend:
CRP [1] = biological target: T1, CRP (Homo sapiens, UniProt P02741); design: The final concentrations were 0.73 μM native pentameric CRP; from tissue; details: rats undergoing coronary artery ligation and receiving human CRP; cited from earlier work
T1 sequence (P02741 19-224): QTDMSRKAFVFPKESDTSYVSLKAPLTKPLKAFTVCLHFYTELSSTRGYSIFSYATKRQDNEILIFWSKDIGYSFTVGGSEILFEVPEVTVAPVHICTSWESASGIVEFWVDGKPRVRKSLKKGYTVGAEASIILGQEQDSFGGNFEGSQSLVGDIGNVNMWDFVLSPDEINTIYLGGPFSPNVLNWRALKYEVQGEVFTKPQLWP

[2] = In vivo clearance of ligand; details: male, C57BL/6, mouse, serum, 0.5 mg; mice, intravenous; read-out: half-life (t1/2) of ligand in mouse circulation
Description: (i) Ligand (0.5 mg/animal) dissolved in PBS or saline (200 μl) was injected intravenously into the tail vein of six male; 23-27 week old wild-type C57BL/6 mice. Up to two blood samples plus a terminal sample per mouse were collected at each time point up to 180 minutes.
(ii) Serum was prepared and ˜200 ng of internal standard (either ^2H4-BPC6 or BPC9) added. Serum proteins were precipitated with 4 volumes of either ice cold methanol or acetonitrile. The supernatant was dried under vacuum and re-dissolved in 0.1% v/v aqueous formic acid. (iii) Samples were chromatographed on a Phenomenex Aqua column using a gradient of 0.1% v/v formic acid-60% v/v acetonitrile in formic acid, and the eluate passed into the positive ion source of a Quattro II triple quadrupole mass spectrometer. The MRM transitions used were m/z 449.3→390.2 and 453.→394.2 (BPC6) and m/z 477.3→418.3, […] (BPC8).
(iv) Ligand concentrations were measured against an extracted standard curve and were plotted using Sigmaplot (v14) and fitted to a 2-parameter exponential decay.

CRP [3] = biological target: T1, CRP; test: Roche immunoturbidimetric assay: pure CRP; type: binding; design: The final concentrations were 0.73 μM native pentameric CRP; from tissue
Description: (i) Human CRP at ˜90 μg/ml (3.9 μM monomer or 0.78 μM pentamer) in TC buffer was prepared from a stock solution; a 75 μl aliquot was used in the assay.
(ii) Compounds were prepared from stock solutions at up to 10 mM in TC (labelled S1). They were serially diluted with TC buffer (100 μl ligand+200 μl TC) to provide up to 9 dilutions, S2-S10. A TC buffer control (S0) was included in each assay.
(iii) A 15 μl volume of each ligand solution was incubated with 75 μl of CRP for 1 h at 37° C. The final concentrations were CRP pentamer=0.73 μM, ligands S1-S10=625-0.03 μM, corresponding to ligand:CRP pentamer ratios of 853-0.04.
(iv) CRP concentrations were measured by the Roche microparticle-enhanced immunoturbidimetric assay (10) on the COBAS MIRA autoanalyser, and results expressed as a percentage of the CRP control.
(v) Data were plotted using Sigmaplot (V14) using the 4 parameter logistic curve y=min+(max−min)/(1+(x/EC50)^−Hill slope) to calculate EC50.
(vii) All compounds were assayed in comparison with a highly purified preparation of BPC8, that was prepared by Carbogen AMCIS AG, dissolved in sterile water and diluted into TC buffer as required.
The immunoturbidimetric CRP assay on the Roche COBAS MIRA Plus autoanalyser, utilises two different sized microparticles that are covalently coupled with two different monoclonal antibodies, which recognise different CRP epitopes. The assay was developed by Roche for clinical measurement of CRP serum and plasma with high sensitivity and a very wide dynamic range. Serendipitously, one of the two antibodies binds to an epitope present on the ligand binding B-face of CRP. Thus, when the binding pocket is occupied by ligand and, especially, when the B-face is occluded by the B-face to B-face interaction of two native CRP pentamers produced by cross linking via our unique bivalent ligands, the assay fails to detect the CRP. In contrast, the CRP is all detected and assayed normally by other assays that disrupt the crosslinking and/or use antibodies which recognise different, non-occluded, epitopes. Inhibition of CRP recognition in the Roche assay is thus a convenient tool to monitor the efficacy and potency of complex formation between our unique ligands and CRP.

CRP [4] = biological target: T1, CRP; test: Size exclusion chromatography of CRP/ligand cross linking; type: binding; design: The final concentrations were 0.73 μM native pentameric CRP; from tissue
Description: (i) Ligands were diluted to 0.5 mM in TC buffer from up to 10 mM stocks. Serial dilutions were prepared as required. […]
(iii) The complex was chromatographed on a Superdex200 column (10/300 GL; 24 ml bed volume), connected to the ÅKTA100 Explorer HPLC system, and equilibrated and eluted in TC buffer at 0.5 ml/min. Eluates were monitored at 280 nm and fractions (0.5 ml) collected as required.
Size exclusion chromatography on a Superdex 200 column equilibrated and eluted with TC buffer pH 8.0, and calibrated with standard globular marker proteins and with human CRP, the native CRP pentamer (Mr 115 kDa) eluted at 13.9 ml (range 13.7-14.0 ml, n=10).

CRP [5] = biological target: T1, CRP; test: Rat acute myocardial infarction model (coronary artery ligation) with human CRP; type: in vivo; design: The final concentrations were 0.73 μM native pentameric CRP; from tissue; details: rats; ischaemia reperfusion and terminal coronary artery ligation; unpublished observations
Description: Human CRP and activated rat complement were deposited in and around the infarct and the exacerbation of tissue damage was absolutely complement dependent. Similar observations were made in the middle cerebral artery occlusion model of stroke in rats (3).
The design of the first small molecule inhibitor of CRP binding for use in vivo, bis(phosphocholine)hexane (BPC6), enabled conclusive confirmation of the pathogenic role of human CRP in exacerbating tissue damage after ischaemic infarction (4).

CRP [6] = biological target: T1, CRP; test: Immobilised phosphocholine plate assay (125I-CRP binding); design: The final concentrations were 0.73 μM native pentameric CRP; from tissue; details: read-out: IC50 for inhibition of 125I-CRP binding to immobilised phosphocholine
Description: (i) Phosphocholine was immobilised on Greiner NHS-activated microtitre plates by incubation with 4-aminophenyl-1-phosphocholine. Remaining active sites were blocked by incubation with 4% w/v BSA in TC buffer (TCB).
(ii) Human CRP at 1 μg/ml in TC buffer was spiked with ^125I-labelled CRP to provide 10^6 cpm/ml.
(iii) Compounds were prepared from up to 10 mM stock solutions by dilution in TC buffer to 0.5 mM (labelled S1). Serial dilutions were prepared by diluting 100 μl ligand solution with 200 μl TC buffer (S2-S10). A ligand-free control was also used (SO, TC only).
(iv) A 100 μl volume of CRP solution was incubated with 10 μl of each compound (S1-S10, SO) for 1 h at room temperature without stirring, to provide final ligand concentrations across the range 45.5 μM-6.9 nM with a ligand:CRP monomer molar ratio of 1151-0.06. In some cases, single fixed ligand concentrations were also assayed in comparison with PC.
(v) A 100 μl volume of each CRP-ligand mixture was added to the plate wells and incubated for 2 h at room temperature. Solutions were then discarded and the plates washed with TCB buffer. Bound radioactivity was measured (1 min counts) using a gamma counter (Perkin Elmer Wizard 2470).
(vi) Data were plotted with Sigmaplot v14 software using the 4-parameter logistic curve y=min+(max−min)/(1+(x/EC50)^−Hill slope) to calculate IC50.

CRP [7] = biological target: T1, CRP; test: In vivo clearance of CRP/ligand complexes generated in vivo in mice; design: The final concentrations were 0.73 μM native pentameric CRP; from tissue
Description: (i) Two groups of 8 wild-type C57BL/6 mice (male; 23-27 weeks old) were used: group 1 (control) and group 2 (treated).
(ii) Both groups of animals were given 200 μl of human CRP (5 mg/ml in azide-free TC buffer) subcutaneously on day 1.
(iii) On day 2 (+18 h), control animals were given a 200 μl intravenous bolus of TC buffer. Treated animals were given a 200 μl iv bolus of ligand (prepared at 5 mg/ml in TC buffer).
(iv) One timed blood sample and a terminal blood sample were collected from each mouse into heparinised tubes and weighed. This generated data in quadruplicate at 4 time points, normally 30, 60, 120 and 360 minutes.
(v) ^125I radiolabel was measured (Perkin Elmer Wizard; protocol #1) in whole blood to quantify total CRP. In some cases, electroimmunoassay as above was also used to determine total CRP concentration.
(vi) Plasma was prepared and free CRP determined by Roche immunoassay.
Subcutaneous injection of human CRP provided circulating CRP concentrations with which to test for effects of our ligands in vivo. (Table 4).

Compound	Effect on increased tissue damage caused by human CRP (CRP [1])	half-life [2]	IC50 (CRP [3]; pure CRP in TC buffer, read-out: IC50 (μM), SD, inhibition of Roche CRP immunoreactivity)	Stable to rechromatography (CRP [4]; CRP/ligand complex re-chromatographed in absence of free ligand)	CRP elution volume from Superdex 200 after pre-incubation with ligand (CRP [4]; native CRP pentamer elutes at 13.9 ml)	Protective effect against human CRP pathogenicity (CRP [5])	IC50 (CRP [6])	Time by which Roche value was the same as in control mice (CRP [7]; i.v. bolus 1 mg 18 h after s.c. CRP)	Effect on detection of circulating CRP in the Roche assay (CRP [7]; i.v. bolus 18 h after s.c. CRP (1 mg))	excess of ligand over CRP pentamer causing 50% reduction of immunoreactivity (CRP [3])
C[N+](C)(C)CCOP(=O)([O-])OCCCCCCOP(=O)([O-])OCC[N+](C)(C)C [BPC6, bis(phosphocholine)hexane]	completely abrogated the increased damage	16.1 min	4.7 µM	–	–	–	–	–	–	–
C[N+](C)(C)CCOP(=O)(O)OCCCCCCCCOP(=O)(O)OCC[N+](C)(C)C [BPC8, 1,8-bis(phosphocholine)-octane, reference compound]	–	15.4 min	–	No	12.6 mL	same protective effect	2200 nM	≤ 3 h	immediately blocked detection of circulating CRP	2.5 fold
